Structures are written as SMILES.

Holding throughout (format): biochemical
The target of one test is T1, VHR (Homo sapiens, UniProt P51452).
T1 construct: made in house; host or cells: E. coli
The experiment in a line: Tyrosine phosphatase selectivity (pNPP substrate), VHR. Particulars: for IC50: VHR, pNPP substrate; for IC50PTP/IC50SHP2 VHR: selectivity ratio VHR over SHP2. As for the experimental part: (§1) This experiment evaluated the selectivity of the disclosed compounds against tyrosine phosphatases, including SHP1, HePTP, Laforin, LMWPTP, LYP, PTP1B, PRL2, SSU72, VHR, FAP1, STEP, CDC14A, CD45, MEG2, and PP5, all expressed and purified from E. coli.
(§2) Phosphatase activity was measured using p-nitrophenyl phosphate (pNPP) (Fisher Scientific) as the substrate in 50 mM 3,3-dimethylglutaric acid buffer (pH 7.0, containing 1 mM EDTA), with ionic strength adjusted to 0.15 M with NaCl. […] After 10-60 minutes, the reaction was quenched by adding 20 µL of 5 N NaOH. Wells without enzyme were used as controls for correction. The amount of the product, p-nitrophenol, was determined by measuring the absorbance at 405 nm using a Spectra MAX340 microplate spectrophotometer (Molecular Devices), with a molar extinction coefficient of 18000 M^-1cm^-1.
(§3) Data were analyzed using GraphPad Prism software. Dose-response curves were obtained by fitting data using the nonlinear S-curve regression Dose-response-inhibition equation, and IC50 values were calculated.

Another test has as its target T2, CD45 (Homo sapiens, UniProt P08575).
T2 construct: made in house; host or cells: E. coli
T2 sequence (P08575 26-1306): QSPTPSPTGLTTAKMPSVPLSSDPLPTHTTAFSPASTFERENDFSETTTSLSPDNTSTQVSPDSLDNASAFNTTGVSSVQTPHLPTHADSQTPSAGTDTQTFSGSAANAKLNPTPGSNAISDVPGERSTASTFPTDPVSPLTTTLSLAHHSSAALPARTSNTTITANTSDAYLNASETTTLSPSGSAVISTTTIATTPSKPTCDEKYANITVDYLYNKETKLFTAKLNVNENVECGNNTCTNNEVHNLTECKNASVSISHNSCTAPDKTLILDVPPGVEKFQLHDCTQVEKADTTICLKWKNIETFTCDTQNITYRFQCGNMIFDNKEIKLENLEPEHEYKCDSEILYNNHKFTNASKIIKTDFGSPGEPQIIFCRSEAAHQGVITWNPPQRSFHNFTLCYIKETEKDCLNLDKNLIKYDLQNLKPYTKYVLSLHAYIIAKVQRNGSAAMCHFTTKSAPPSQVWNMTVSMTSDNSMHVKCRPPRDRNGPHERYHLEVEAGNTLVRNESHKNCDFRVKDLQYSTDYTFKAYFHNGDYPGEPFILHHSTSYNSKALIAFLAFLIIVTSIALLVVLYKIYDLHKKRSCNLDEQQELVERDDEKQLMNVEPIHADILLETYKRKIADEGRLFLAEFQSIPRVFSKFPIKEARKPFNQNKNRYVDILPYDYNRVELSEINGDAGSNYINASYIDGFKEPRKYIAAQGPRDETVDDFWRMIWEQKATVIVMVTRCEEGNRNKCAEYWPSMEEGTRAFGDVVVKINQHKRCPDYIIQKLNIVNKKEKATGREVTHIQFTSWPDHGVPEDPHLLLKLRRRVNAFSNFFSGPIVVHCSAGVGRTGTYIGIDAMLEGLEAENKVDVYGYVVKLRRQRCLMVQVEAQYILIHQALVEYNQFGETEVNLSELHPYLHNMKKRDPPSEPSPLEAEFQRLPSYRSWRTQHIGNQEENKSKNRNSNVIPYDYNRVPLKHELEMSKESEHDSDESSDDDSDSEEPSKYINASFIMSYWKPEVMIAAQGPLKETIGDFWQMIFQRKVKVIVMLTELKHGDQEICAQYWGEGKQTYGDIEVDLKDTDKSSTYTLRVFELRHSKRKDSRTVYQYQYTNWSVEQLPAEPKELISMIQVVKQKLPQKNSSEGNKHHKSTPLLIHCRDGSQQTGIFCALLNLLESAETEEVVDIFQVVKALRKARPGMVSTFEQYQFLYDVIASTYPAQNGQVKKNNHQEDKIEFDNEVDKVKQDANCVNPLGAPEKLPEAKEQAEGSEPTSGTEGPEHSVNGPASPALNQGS
The experiment in a line: Tyrosine phosphatase selectivity (pNPP substrate), CD45. Particulars: for IC50: CD45, pNPP substrate; for IC50PTP/IC50SHP2 CD45: selectivity ratio CD45 over SHP2. As for the experimental part: as §1, §2, §3

A further test addresses T3, MEG2 (Homo sapiens, UniProt P43378).
T3 construct: made in house; host or cells: E. coli
T3 sequence (P43378 1-593): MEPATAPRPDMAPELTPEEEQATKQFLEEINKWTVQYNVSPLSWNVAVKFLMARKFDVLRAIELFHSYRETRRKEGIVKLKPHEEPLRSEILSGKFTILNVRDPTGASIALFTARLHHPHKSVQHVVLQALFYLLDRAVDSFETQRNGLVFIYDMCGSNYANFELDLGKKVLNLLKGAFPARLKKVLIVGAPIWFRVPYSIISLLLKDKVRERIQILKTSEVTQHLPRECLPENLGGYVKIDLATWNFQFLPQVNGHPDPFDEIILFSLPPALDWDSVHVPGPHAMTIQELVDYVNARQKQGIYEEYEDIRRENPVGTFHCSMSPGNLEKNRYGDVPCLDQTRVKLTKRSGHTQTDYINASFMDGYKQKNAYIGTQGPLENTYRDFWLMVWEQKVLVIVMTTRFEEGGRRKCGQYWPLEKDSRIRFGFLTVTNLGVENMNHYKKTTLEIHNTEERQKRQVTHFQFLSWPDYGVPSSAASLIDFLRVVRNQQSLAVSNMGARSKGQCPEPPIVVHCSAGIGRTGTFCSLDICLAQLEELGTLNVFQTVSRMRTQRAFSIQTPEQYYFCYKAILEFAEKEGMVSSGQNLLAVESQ
Description: Tyrosine phosphatase selectivity (pNPP substrate), MEG2. Conditions: for IC50: MEG2, pNPP substrate; for IC50PTP/IC50SHP2 MEG2: selectivity ratio MEG2 over SHP2. The protocol:
as §1, §2, §3

In a further test the target is T4, PP5 (Homo sapiens, UniProt P53041).
T4 construct: made in house; host or cells: E. coli
T4 sequence (P53041 1-499): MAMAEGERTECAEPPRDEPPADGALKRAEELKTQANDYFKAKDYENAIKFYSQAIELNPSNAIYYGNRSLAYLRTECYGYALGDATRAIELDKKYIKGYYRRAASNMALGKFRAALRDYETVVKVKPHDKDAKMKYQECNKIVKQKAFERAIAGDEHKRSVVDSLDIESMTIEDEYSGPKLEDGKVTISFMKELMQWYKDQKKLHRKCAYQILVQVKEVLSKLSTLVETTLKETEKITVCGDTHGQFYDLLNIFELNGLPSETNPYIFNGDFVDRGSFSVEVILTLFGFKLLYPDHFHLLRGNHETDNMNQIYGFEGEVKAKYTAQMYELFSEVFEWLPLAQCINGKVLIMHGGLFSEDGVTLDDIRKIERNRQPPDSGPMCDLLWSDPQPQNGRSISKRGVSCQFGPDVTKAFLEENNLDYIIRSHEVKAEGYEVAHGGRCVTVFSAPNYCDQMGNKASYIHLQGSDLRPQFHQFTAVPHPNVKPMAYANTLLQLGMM
The experiment in a line: Tyrosine phosphatase selectivity (pNPP substrate), PP5. Particulars: for IC50: PP5, pNPP substrate; for IC50PTP/IC50SHP2 PP5: selectivity ratio PP5 over SHP2. The protocol: as §1, §2, §3

T1 sequence (P51452 whole entry, species assumed): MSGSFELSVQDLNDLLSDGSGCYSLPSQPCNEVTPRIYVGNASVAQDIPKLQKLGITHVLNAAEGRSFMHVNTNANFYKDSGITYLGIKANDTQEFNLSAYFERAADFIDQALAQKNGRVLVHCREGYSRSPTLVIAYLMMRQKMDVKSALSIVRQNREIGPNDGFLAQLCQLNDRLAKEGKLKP

Usually IC50 stands for the concentration that gives 50% inhibition. Turning to `Cn1cc(-c2ccc(NC(=O)C(=O)Nc3ccc(-c4cc5cc(F)c(-c6noc(=O)[nH]6)cc5n4C4CCC4)cc3)cc2)cn1` [Example 123], on VHR, the midpoint of inhibition, the IC50, lay at 2440 nM and the “IC50PTP/IC50SHP2 VHR” value stood at 17.3. Further, on CD45, it took 4270 nM to reach half-maximal inhibition (IC50) and the “IC50PTP/IC50SHP2 CD45” value worked out at 30.3. In addition, on MEG2, the IC50 amounted to 2410 nM and the “IC50PTP/IC50SHP2 MEG2” value worked out at 17.1. Besides, on PP5, the IC50 is greater than 100000 nM and the “IC50PTP/IC50SHP2 PP5” value was 709.2.
On to `O=C(Nc1ccc(-c2cc3cc(F)c(-c4nnn[nH]4)cc3n2C2CCC2)cc1)C(=O)Nc1ccc(N2CCC3(CCOC3)CC2)cc1` [Example 67], for which, on VHR, the IC50 amounted to 4450 nM and the “IC50PTP/IC50SHP2 VHR” value was 130. Also, on CD45, half-maximal inhibition (IC50) required 2620 nM and the “IC50PTP/IC50SHP2 CD45” value is listed as 77.0. At MEG2, it took 1770 nM to reach half-maximal inhibition (IC50) and the “IC50PTP/IC50SHP2 MEG2” value is 52.0. On PP5, the IC50 is greater than 100000 nM and the “IC50PTP/IC50SHP2 PP5” value is on record as 2941.
